Experimental data: US12630523B2, “Isoquinoline derivatives for use as antiviral and antitumour agents” (priority 2021, dated 2026)

What was measured:
[1] = test system: SARS-CoV-2 isolate BetaCov/Belgium/GHB-03021/2020; test: microbe, parasite or virus in culture; type: cell-based; settings: 1.25 μM (non-toxic compound concentration), n4; for inhibition at 1.25 µM: Severe acute respiratory syndrome coronavirus 2
Plk3 = Plk3 (Homo sapiens, UniProt Q9H4B4); settings: cited from earlier work
[2] = Pharmacokinetics of VSP034 and VSP035 after oral administration of a liposomal formulation; type: in vivo, female Sprague-Dawley rats; settings: for AUC(0-inf) / CL/F / Cmax / MRT inf / Tmax / Vd/F / half-life: female, Sprague-Dawley, rat, in vivo, po, 100 mg/kg; for AUC(0-inf): AUC0-inf; for MRT inf: MRT0-inf; for Vd/F: Vz/F
Experimental: The pharmacokinetic parameters of VSP034 and VSP035 encapsulated as liposomal formulation were assessed after the administration of a single 100 mg/kg dose by oral gavage to 6 female Sprague-Dawley rats weighting 250 grams (+25 g). The animals were randomized into two experimental groups (Groups 1 and 2), each composed of 3 rats. Rats belonging to group 1 were administered with VSP034 and rats belonging to group 2 were administered with VSP035. Blood was collected at baseline and 15 min, 30 min, 1, 2, 4, 6, 8, and 24 hours after the oral gavage. The rats were sacrificed 24 hours after the dosing. Blood was collected at each timepoint from the caudal vein, with the exception of the last collection (24 hours), which was performed by intracardiac puncture at the moment of sacrifice under isoflurane anesthesia. The animals were weighted immediately before the dosing to assess the proper dose and carefully monitored during the experiment. They were kept in standard housing conditions, meeting the legal requirements for the correct housing of rodents for a period not exceeding the maximum experimental endpoints. Ad libitum access to water and food was allowed. […] Humane endpoints have not been reached. The pharmacokinetic analysis was performed using Microsoft Excel plug-in PK Solver. Pharmacokinetic parameters of two compounds are compared with the software GraphPad Prism ver. 8.0 by Student's t test for unpaired data. A p value <0.05 is considered statistically significant.
Analytical method: Compound analysis was performed following the bioanalytical method as in Test 13. In this study, carbamazepine was used as an internal standard.
Pharmacokinetic analysis: A pharmacokinetic analysis of VSP034 and VSP035 was performed using the Excel plug-in 2.0 PK Solver. The results have been fitted according to a non-compartmental modelling following extravascular administration. Concentration-vs-time curves for VSP034 and VSP035.
The main pharmacokinetic parameters (half-life, t1/2; time to maximum plasma concentration, Tmax; maximum plasma concentration, Cmax, AUC Extrapolated to Infinity, AUC0-inf; mean residence time, MRT; Apparent Volume of Distribution During Terminal Phase, Vz/F; and apparent oral clearance, CL/F) were calculated from the coefficients and exponents of the best-fits by using standard formulae.

[3] = test system: patient derived SARS-2 Coronavirus (COVID19); test: Inhibition of Sars-CoV2 replication by RNA qPCR analysis in Vero E6 cells; type: cell-based, SARS-CoV-2; settings: 7.5 μM, supernatants 3 days after infection, n3
Experimental: Vero E6 cells were pre-incubated with the compounds at a concentration of 7.5 μM. The cells were infected with a patient derived SARS-2 Coronavirus (COVID19). Cellular supernatants were collected 3 days after infection and centrifuged at 2000 rpm for 5 min to remove detached cells. Viral RNAs were extracted using a MagNA Pure 24 system (Roche, Germany). SARS-CoV-2 RNA genomes were quantified with the TIB MOLBIOL LightMix Assay SARS-CoV-2 RdRP RTqPCR assay kit with RNA Process Control PCR Kit (Roche). The PCR reaction setup was performed using a BRAND LHS laboratory robot to ensure quality. The amplification was performed with a LightCycler 480 II (Roche). Method used in FIG. 10.
SARV-CoV-2 antiviral activity by of VSP034 and VSP035 (n3; number of repeat of the assay at each condition). The results are shown in for DMSO (1), 7.5 μM VSP034 (2) and 7.5 μM VSP035 (3), y axis logarithmic scale. […] (FIG. 9)

[4] = test system: CaSki (ATCC CRM-CRL-1550); test: Monolayer assay using Sulphorhodamine B (SRB) staining, CaSki; type: cell-based; settings: Homo sapiens, Ca-Ski, read-out: EC50 mean [nM]
Experimental: Various cell culture cells grown as monolayers are harvested from exponential growing cultures after treatment with various OC compounds at different concentrations. For this depending on the cell line, 10.000 to 30.000 cells were plated in 96-well flat-bottom microtiter plates. After a 24 h recovery period to allow cells to resume exponential growth, supernatants are discarded and 100 μl of culture medium (eight control wells/plate) or culture medium with the test compound are added by a liquid handling robotic system (Microlab® Starlet, Hamilton) and treatment continued for 72 hrs. Compounds are applied at 9 concentrations and eight wells/concentration). At least three independent experiments are performed. For SRB staining, cells are fixed with SRB01 (Tab. 5) for 1 h at 4° C. (final concentration of TCA=10%) washed with a plate washer (Hydroflex, Tecan©) for five times with H2O; and stained with 100 μl of SRB02 at room temperature for 10 min following 4 washes in SRB03 and finally 100 μl of developer solution SRB04 for 5 minutes with shaking. Optical density is assessed using a plate-reader (Sunrise, Tecan©) at 540 nm.
Concentrations required for half maximal response of the compound for cell growth inhibition (EC50) is calculated by non-linear regression (log[conc. of inhibitor] versus response (% T/C)) using the analysis software GraphPad Prism®, Prism 5 for windows, version 5.01 (GraphPad Software Inc., CA).

[5] = test system: p38, JNK1, ERK1/2, PKC, or Src-like kinases; settings: cited from earlier work
[6] = test system: cell signaling molecules (4E-BP1, p70 S6 kinase, Akt, PTPN14, p53, PD-L1); test: Western blot of cell signaling molecules in CaSki cells; settings: CaSki, 6 h; order 10 μM VSP035, Torin 1, Torin 2, rapamycin, 5 μM VSP035, CGP 57380

Chain of Plk3 (Q9H4B4 whole entry, species assumed): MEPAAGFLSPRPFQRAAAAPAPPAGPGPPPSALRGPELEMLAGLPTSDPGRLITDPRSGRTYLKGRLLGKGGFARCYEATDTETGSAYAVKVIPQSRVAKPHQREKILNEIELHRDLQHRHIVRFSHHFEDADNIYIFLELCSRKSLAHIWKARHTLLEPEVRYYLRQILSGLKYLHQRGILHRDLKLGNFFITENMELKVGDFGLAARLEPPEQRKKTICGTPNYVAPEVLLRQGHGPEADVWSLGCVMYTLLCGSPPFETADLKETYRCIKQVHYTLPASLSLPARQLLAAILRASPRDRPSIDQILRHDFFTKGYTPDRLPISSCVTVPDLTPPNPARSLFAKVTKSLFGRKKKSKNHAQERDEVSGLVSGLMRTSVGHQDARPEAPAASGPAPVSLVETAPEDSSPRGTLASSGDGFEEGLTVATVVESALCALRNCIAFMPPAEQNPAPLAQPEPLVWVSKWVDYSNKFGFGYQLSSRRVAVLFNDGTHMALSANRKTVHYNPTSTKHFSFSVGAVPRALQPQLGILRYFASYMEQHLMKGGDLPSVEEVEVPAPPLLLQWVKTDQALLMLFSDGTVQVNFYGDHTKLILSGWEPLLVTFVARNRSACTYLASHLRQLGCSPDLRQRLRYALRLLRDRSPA

Structure (SMILES): COc1cc(OC)c(/C=C/S(=O)(=O)Cc2ccc(OC)c(NCC(=O)O)c2)c(OC)c1 [ON-01910.Na, reference compound]
- inhibition at 1.25 µM [1]: 51.4%
- activity to Plk3 (Plk3): against Plk2 and no activity to Plk3.

Structure (SMILES): CN1CCC(CN2C(=O)c3ccccc3[C@@H](C(=O)Nc3cccc(N4CCN(C)CC4)c3)[C@@H]2c2ccc(C(F)(F)F)cc2)CC1 [VSP034, (3R,4R)-N-[3-(4-methylpiperazin-1-yl)phenyl]-2-[(1-methylpiperidin-4-yl)methyl]-1-oxo-3-[4-(trifluoromethyl)phenyl]-1,2,3,4-tetrahydroisoquinoline-4-carboxamide]
- AUC(0-inf) ([2]; Mean): 529 ng·h/mL
- AUC(0-inf) ([2]; Median): 613 ng·h/mL
- CL/F ([2]; Mean): 3.42 mL/min/kg
- CL/F ([2]; Median): 2.72 mL/min/kg
- Cmax ([2]; Mean): 89 ng/mL
- Cmax ([2]; Median): 87.9 ng/mL
- MRT inf ([2]; Mean): 6.72 h
- MRT inf ([2]; Median): 6.77 h
- Tmax ([2]; Mean): 1.17 h
- Tmax ([2]; Median): 1 h
- Vd/F ([2]; Mean): 1.29 L/kg
- Vd/F ([2]; Median): 0.994 L/kg
- half-life ([2]; t1/2, Mean): 4.33 h
- half-life ([2]; t1/2, Median): 4.22 h
- condition of the rats after administration of the liposomal formulation ([2]; single 100 mg/kg oral gavage, observed 24 hours): did not show any sign of suffering or abnormal behavior
- reduction of virus load as determined by the PCR assay [3]: one order of magnitude
- EC50 [4]: 3590 nM
- inhibition at 1.25 µM [1]: 45.2%

Structure (SMILES): Nc1ncnc2n[nH]c(Nc3ccc(F)cc3)c12 [CGP57380, reference compound]
- inhibitory activity against p38, JNK1, ERK1/2, PKC, or Src-like kinases [5]: μM, but has no inhibitory activity against
- % Inhibition [1]: 17.71%
- Phosphorylation of 4E-BP1 on Ser65 and the p70S6 kinase on Thr389 [6]: inhibited or strongly reduced
